Assay results reported in publication PMC5654968 (NPJ Systems Biology and Applications, 2017).
Read-outs that look alike come from different tables or passages of the source.

Format: in vivo, rat
Protocol: Distilled water and saline were administered as vehicle to rats in each control group. […] Plasma cytokine levels were measured by ELISA or multiplex immunoassay; common metabolites and lipid mediators were analyzed by GC-MS/MS and LC-MS/MS, respectively.
Pathway maps of lipid mediators were created by using CellDesigner 4.4 software (http://www.celldesigner.org). We evaluated the effects of the treatments on specific lipid mediators and categorized them according to COX, CYP and LOX pathways by Fisher’s exact test. The proinflammatory and anti-inflammatory indices were analyzed as described by Tam et al. with modification.[22]

[1] = PM/P (polyI:C+maoto vs polyI:C), 2h
[2] = PM/P (polyI:C+maoto vs polyI:C), 4h

Row | Compound | log2FC of plasma level (M/C (maoto vs control), 2h) | log2FC of plasma level (M/C (maoto vs control), 4h) | log2FC of plasma level (P/C (polyI:C vs control), 2h) | log2FC of plasma level (P/C (polyI:C vs control), 4h) | log2FC of plasma level [1] | log2FC of plasma level [2]
1 | CCCCC/C=C\C/C=C\C=C\C(O)C/C=C\CCCC(=O)O (stereo not drawn) [8-HETE] | 0.09 | -0.40 | -0.12 | 0.39 | 0.05 | -0.62
2 | CCCCCC(=O)/C=C/[C@@H]1[C@H](C/C=C\CCCC(=O)O)[C@@H](O)C[C@H]1O [8-iso-15-keto-PGF2α] | -0.41 | -0.68 | -0.16 | 1.04 | -0.14 | -0.99
3 | CCCCC[C@H](O)/C=C/[C@H]1[C@H](O)CC(=O)[C@H]1C/C=C\CCCC(=O)O [8-iso-PGE2] | -0.45 | -0.43 | -0.13 | 0.77 | -0.23 | -0.98
4 | CCCCC/C=C\CC(O)C(O)CCCCCCCC(=O)O (stereo not drawn) [9,10-DiHOME] | 0.50 | -0.34 | 0.31 | -0.14 | 0.19 | -0.10
5 | CCCCC/C=C\CC1OC1CCCCCCCC(=O)O (stereo not drawn) [9,10-EpOME] | 0.04 | -0.80 | 0.10 | 0.36 | -0.30 | -1.14
6 | CCCCC/C=C\C/C=C\CC(O)/C=C/C=C\CCCC(=O)O (stereo not drawn) [9-HETE] | 0.09 | -0.42 | -0.22 | 0.63 | 0.30 | -1.09
7 | CCCCC/C=C\C=C\C(O)CCCCCCCC(=O)O (stereo not drawn) [9-HODE] | -0.05 | -0.53 | -0.02 | 0.50 | -0.13 | -0.97
8 | CC/C=C\C/C=C\C=C\C(O)CCCCCCCC(=O)O (stereo not drawn) [9-HOTrE] | 0.03 | -0.77 | 0.04 | 0.61 | -0.05 | -1.19
9 | CCCCC/C=C\C=C\[C@H](CCCCCCCC(=O)O)OO [9-HpODE, 9S-hydroperoxy-10E,12Z-octadecadienoic acid] | 2.26 | -2.31 | 0.65 | 0.35 | -0.77 | -1.51
10 | CCCCC/C=C/C=C/C(=O)CCCCCCCC(=O)O [9-KODE] | -0.09 | -0.95 | -0.17 | 0.97 | -0.03 | -1.16
11 | CC/C=C\C/C=C\C/C=C\C=C\C(O)C/C=C\C/C=C\CCC(=O)O (stereo not drawn) [10-HDoHE] | 0.15 | -0.47 | 0.01 | 0.14 | -0.04 | -0.60
12 | CCCCC/C=C\CC(O)C(O)C/C=C\C/C=C\CCCC(=O)O (stereo not drawn) [11,12-DHET] | 0.90 | 0.13 | -0.15 | 0.23 | 0.19 | -0.31
13 | CCCCC/C=C\C[C@H]1O[C@H]1C/C=C\C/C=C\CCCC(=O)O [11,12-EET] | -0.50 | -0.33 | -0.22 | 0.37 | -0.13 | -0.59
14 | CC/C=C\C/C=C\C/C=C\CC(O)/C=C/C=C\C/C=C\CCC(=O)O (stereo not drawn) [11-HDoHE] | 0.35 | -0.42 | 0.05 | 0.13 | 0.03 | -0.58
15 | CCCCC/C=C\C=C\C(O)C/C=C\C/C=C\CCCC(=O)O (stereo not drawn) [11-HETE] | 0.15 | -0.41 | 0.23 | 0.38 | 0.04 | -0.66
16 | CCCCCC(O)C(O)C/C=C\CCCCCCCC(=O)O (stereo not drawn) [12,13-DiHOME] | 0.57 | -0.31 | 0.25 | 0.12 | 0.26 | -0.28
17 | CC/C=C\C/C=C\CC(O)/C=C/C=C\C/C=C\CCCC(=O)O (stereo not drawn) [12-HEPE] | 1.09 | -0.37 | -0.06 | 0.02 | 0.67 | -0.27
